Reference: patent US20130152233A1, “5-FLUOROCYTOSINE AS A SEED TREATMENT AGENT TO CONTROL PLANT DISEASE” (Dow AgroSciences LLC, priority 2011, published 2013)

Tested on: Mycosphaerella graminicola; anamorph: Septoria tritici; Bayer code SEPTTR
Experiment: Fungicidal activity as a seed treatment for leaf blotch of wheat (SEPTTR), treated 'Yuma' wheat seeds
Assay type: in vivo
Experimental: Evaluation of Fungicidal Activity as a Seed Treatment for Leaf Blotch of Wheat (Mycosphaerella graminicola; anamorph: Septoria tritici; Bayer code […]) Seeds of wheat variety 'Yuma' were treated with a 1% weight-to-volume (w/v) solution of 5-fluorocytosine in water at rates of 16.5, 5.5, 1.8, and 0 grams of active ingredient per 100 kilograms (g ai/100 kg) of seeds. A red dye and a polymer blend were included in the formulation as inert ingredients. Seeds were allowed to dry thoroughly and were sown 3 days (trial 1) or 5 weeks (trials 2 and 3) after treatment. Seeds (10-12 seeds/pot) were planted in 4 square inch pots containing 50% mineral soil/50% soil-less Metro mix. Eleven-day-old seedlings were inoculated with an aqueous spore suspension of Septoria tritici, and 6-10 pots of plants were inoculated for each fungicide rate. After inoculation, plants were kept in 100% relative humidity three days to allow establishment of infection. The plants were then transferred to a greenhouse until disease developed. When disease on untreated plants was fully expressed , disease severities on treated plants were assessed. […] Trial 1 was the average of 10 pots of plants; Trial 2 was the average of 6 pots of plants; and Trial 3 was the average of 6 pots of plants placed in weigh boats in order to prevent possible loss of the 5-fluorocytosine from soil leaching. The following tables include data showing the activity of 5-fluorocytosine when evaluated in these experiments. The effectiveness of 5-fluorocytosine in controlling disease was determined by assessing the severity of disease on treated plants, then converting the severity to percent control based on the level of disease on untreated, inoculated plants.

## Nc1nc(=O)[nH]cc1F [5-fluorocytosine]
Trial 1, 1.8 g ai/100 kg seeds, sown 3 days after treatment, average of 10 pots
  % Disease control (SEPTTR): D (1-25)
Trial 1, 5.5 g ai/100 kg seeds, sown 3 days after treatment, average of 10 pots
  % Disease control (SEPTTR): C (26-50)
Trial 1, 16.5 g ai/100 kg seeds, sown 3 days after treatment, average of 10 pots
  % Disease control (SEPTTR): A (76-100)
Trial 2, 1.8 g ai/100 kg seeds, sown 5 weeks after treatment, average of 6 pots
  % Disease control (SEPTTR): C (26-50)
Trial 2, 5.5 g ai/100 kg seeds, sown 5 weeks after treatment, average of 6 pots
  % Disease control (SEPTTR): A (76-100)
Trial 2, 16.5 g ai/100 kg seeds, sown 5 weeks after treatment, average of 6 pots
  % Disease control (SEPTTR): A (76-100)
Trial 3, 1.8 g ai/100 kg seeds, sown 5 weeks after treatment, 6 pots in weigh boats
  % Disease control (SEPTTR): C (26-50)
Trial 3, 5.5 g ai/100 kg seeds, sown 5 weeks after treatment, 6 pots in weigh boats
  % Disease control (SEPTTR): A (76-100)
Trial 3, 16.5 g ai/100 kg seeds, sown 5 weeks after treatment, 6 pots in weigh boats
  % Disease control (SEPTTR): A (76-100)
Test rate of 16.5 g ai/100 kg seeds
  control of SEPTTR (in words): significant level of control
